In brackets after ≈: the same amount, converted by molar mass.
Tests used:
[1] = Dissociation constant, pKa of the compound by UV spectroscopy or potentiometric analysis; type: physicochemical
[2] = target: Hematopoietic prostaglandin D synthase (Homo sapiens, UniProt O60760); assay: Inhibition of human H-PGDS expressed in Escherichia coli BL21 DE3 cells assessed as reduction in PGD2 production using PGH2 as substrate by RapidFire High Throughput Mass spectrometry
[3] = target: T1, Hematopoietic prostaglandin D synthase (Rattus norvegicus, UniProt O35543); assay: Inhibition of H-PGDS in rat RBL cells assessed as reduction in A23187-induced PGD2 production pretreated for 30 mins followed by A23187 addition for 30 mins by RapidFire Mass spectrometry; type: cell-based
T1 sequence (O35543 whole entry): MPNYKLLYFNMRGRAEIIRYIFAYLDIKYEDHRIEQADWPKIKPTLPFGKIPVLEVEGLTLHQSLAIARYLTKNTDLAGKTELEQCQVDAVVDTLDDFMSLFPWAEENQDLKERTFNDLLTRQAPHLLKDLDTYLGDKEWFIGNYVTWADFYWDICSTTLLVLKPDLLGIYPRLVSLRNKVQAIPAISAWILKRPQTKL

[4] = Half life in mouse liver microsomes pretreated for 5 mins followed by incubation with NADP for 30 secs and measured upto 45 mins by LC-MS/MS analysis; type: ADME, Microsome; settings: time 3030 sec
[5] = Dose normalized AUC in mouse at 3 mg/kg, po; type: ADME, organism-based; parameters: unit not given here; settings: in vivo
[6] = Apparent permeability, Papp of the compound at pH 7.4 incubated for 3 hrs by AMP based liquid chromatography; type: ADME; settings: not told
Albumin = Albumin (Homo sapiens, UniProt P02768); assay: Protein binding in human serum albumin by HPLC analysis; type: ADME, cell-free; settings: read-out: PB (converted)
[7] = Solubility of the compound in FaSSIF at pH 6.5 measured after 4 hrs by HPLC-UV analysis; type: ADME

Chain of Albumin (P02768 whole entry): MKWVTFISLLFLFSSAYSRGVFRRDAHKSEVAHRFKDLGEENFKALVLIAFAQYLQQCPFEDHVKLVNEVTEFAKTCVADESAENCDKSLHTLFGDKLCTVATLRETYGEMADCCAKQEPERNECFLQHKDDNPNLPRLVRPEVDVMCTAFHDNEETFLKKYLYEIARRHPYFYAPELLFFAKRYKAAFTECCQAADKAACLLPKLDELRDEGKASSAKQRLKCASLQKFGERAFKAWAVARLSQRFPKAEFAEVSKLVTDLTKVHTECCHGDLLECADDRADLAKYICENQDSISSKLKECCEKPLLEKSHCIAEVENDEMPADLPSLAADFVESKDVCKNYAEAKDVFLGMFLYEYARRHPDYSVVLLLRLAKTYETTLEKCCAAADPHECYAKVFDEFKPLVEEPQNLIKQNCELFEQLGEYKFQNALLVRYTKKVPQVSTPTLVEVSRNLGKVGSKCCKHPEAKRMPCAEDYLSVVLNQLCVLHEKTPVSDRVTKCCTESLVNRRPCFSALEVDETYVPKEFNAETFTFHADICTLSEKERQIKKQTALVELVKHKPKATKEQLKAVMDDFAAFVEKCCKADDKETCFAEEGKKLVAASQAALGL
Chain of Hematopoietic prostaglandin D synthase (Homo sapiens, UniProt O60760) (O60760 whole entry): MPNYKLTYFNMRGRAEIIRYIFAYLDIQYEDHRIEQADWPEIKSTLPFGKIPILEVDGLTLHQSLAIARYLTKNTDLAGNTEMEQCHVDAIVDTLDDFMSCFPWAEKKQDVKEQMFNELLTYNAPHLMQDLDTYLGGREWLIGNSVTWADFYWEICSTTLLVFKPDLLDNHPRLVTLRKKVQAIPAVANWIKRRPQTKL

| pKa [1] | IC50 [2] | EC50 [3] | half-life [4] | AUC/dose [5] | Papp at 3 h [6] | fraction unbound (Albumin) | solubility at 4 h [7] | EC50 ([3]; rbl) | Compound |
| --- | --- | --- | --- | --- | --- | --- | --- | --- | --- |
| 3.02 | 1.8 µM | 30 µM |  |  |  |  |  |  | CC(C)(O)[C@H]1CC[C@H](NC(=O)c2cnc3ccccc3c2)CC1 |
|  | 0.16 µM | 1.3 µM |  |  |  |  |  |  | C[C@]1(O)C[C@@H](NC(=O)c2cnc3nc(C4CC4)ccc3c2)C1 |
|  | 0.0048 µM | 0.05 µM |  |  |  |  |  |  | C[C@H]1CCN1c1cc2ncc(C(=O)N[C@H]3CC[C@H](C(C)(C)O)CC3)cc2cn1 |
|  | 0.0039 µM | 0.011 µM | > 3 h | 45.2 | 280 nm/s | 0.12 | 0.046 mg/mL (≈ 128 µM) |  | CC(C)(O)[C@H]1C[C@H](NC(=O)c2cnc3nc(C4CC4)c(Cl)cc3c2)C1 |
|  | 0.14 µM | 17 µM |  |  |  |  |  |  | C[C@]1(O)C[C@@H](NC(=O)c2cnc3nc(N4CCC4)ccc3c2)C1 |
|  | 0.012 µM | 0.34 µM | 2.43 h | 23.4 | < 10 nm/s | 0.46 | 0.21 mg/mL (≈ 568 µM) |  | CC(C)(O)[C@H]1CC[C@H](NC(=O)c2cnc3nc(N4CCC4)ncc3c2)CC1 |
|  | 0.017 µM | 0.23 µM | > 3 h | 285 | 34 nm/s | 0.31 | 0.4 mg/mL (≈ 1190 µM) |  | CC(C)(O)[C@]12C[C@@](NC(=O)c3cnc4nc(C5CC5)ccc4c3)(C1)C2 |
| 2.74 | 7.7 µM | 39 µM |  |  |  |  |  |  | CC(C)(O)[C@H]1CC[C@H](NC(=O)c2cnc3cnccc3c2)CC1 |
| < 2 | 0.49 µM | 3.2 µM |  |  |  |  |  |  | COc1ccc2nc(C(=O)N[C@H]3CC[C@H](C(C)(C)O)CC3)cnc2c1 |
|  | 0.01 µM | 0.12 µM |  |  |  |  |  |  | CC(C)(O)[C@H]1CC[C@H](NC(=O)c2cnc3nc(C4CCC4)ccc3c2)CC1 |
|  | 0.0085 µM | 0.064 µM |  |  |  |  |  |  | CC(C)c1ccc2cc(C(=O)N[C@H]3CC[C@H](C(C)(C)O)CC3)cnc2n1 |
|  | 0.0047 µM | 0.0052 µM |  |  |  |  |  |  | CC(C)(O)[C@H]1CC[C@H](NC(=O)c2cnc3nc(C4CC4)c(Cl)cc3c2)CC1 |
|  | 1.3 µM | > 50 µM |  |  |  |  |  |  | COc1ccc2cc(C(=O)N[C@H]3CC[C@H](C(C)(C)O)CC3)ccc2c1 |
|  | 0.0064 µM | 0.17 µM | > 3 h | 204 | 22 nm/s | 0.36 |  |  | CC(C)(O)[C@H]1CC[C@H](NC(=O)c2cnc3nc(C4CC4)ncc3c2)CC1 |
| < 2 | 7.9 µM | > 50 µM |  |  |  |  |  |  | COc1ccc2cc(C(=O)N[C@H]3CC[C@H](C(C)(C)O)CC3)nnc2c1 |
|  | 0.013 µM | 1 µM |  |  |  |  |  |  | CC(C)(O)[C@H]1CC[C@H](NC(=O)c2cnc3nc(N4CC(F)C4)ccc3c2)CC1 |
|  | 0.038 µM | 0.21 µM |  |  |  |  |  |  | CC(C)(O)[C@]12C[C@@](NC(=O)c3cnc4cc(C5CC5)ncc4c3)(C1)C2 |
|  | 0.35 µM | 1.1 µM |  |  |  |  |  |  | CC(C)(O)[C@H]1CC[C@H](NC(=O)c2cnc3nc(OCC(F)(F)F)ccc3c2)CC1 |
|  | 0.0024 µM | 0.0039 µM |  |  |  |  |  |  | CC(C)(O)[C@H]1CC[C@H](NC(=O)c2cnc3nc(N4CCC4)c(Cl)cc3c2)CC1 |
|  | 0.031 µM | 0.31 µM | > 3 h | 693 | 180 nm/s |  | 0.1 mg/mL (≈ 237 µM) |  | O=C(N[C@H]1CC[C@H](N[C@H](CO)C(F)(F)F)CC1)c1cnc2cc(C3CC3)ncc2c1 |
|  | 0.15 µM | 12 µM |  |  |  |  |  |  | CC(C)(O)[C@H]1CC[C@H](NC(=O)c2cnc3nc(NCC(F)F)ccc3c2)CC1 |
| < 2 | 0.18 µM | 0.74 µM |  |  |  |  |  |  | COc1cnc2cc(C(=O)N[C@H]3CC[C@H](C(C)(C)O)CC3)cnc2c1 |
|  | 0.014 µM | 0.088 µM |  |  |  |  |  |  | O=C(N[C@H]1CC[C@H](N2CC(F)(F)C2)CC1)c1cnc2cc(C3CC3)ncc2c1 |
| 3.59 |  | 0.1 µM |  |  |  |  |  |  | COc1ccc2cc(C(=O)N[C@H]3CC[C@H](C(C)(C)O)CC3)cnc2c1 |
|  | 0.0039 µM | 0.032 µM | > 3 h | 477 | 45 nm/s | 0.14 | 0.035 mg/mL (≈ 95.8 µM) |  | CC(C)(O)[C@H]1CC2(C[C@H](NC(=O)c3cnc4nc(C5CC5)ccc4c3)C2)C1 (some centres not stated) |
|  | 0.011 µM | 0.028 µM | > 3 h | 681 | 170 nm/s | 0.18 | > 1 mg/mL |  | CC(N[C@H]1CC[C@H](NC(=O)c2cnc3nc(C4CC4)ccc3c2)CC1)C(F)F (mixture of isomers) |

| pKa [1] | IC50 [2] | EC50 [3] | half-life [4] | AUC/dose [5] | Papp at 3 h [6] | fraction unbound (Albumin) | solubility at 4 h [7] | EC50 ([3]; rbl) | Compound |
| --- | --- | --- | --- | --- | --- | --- | --- | --- | --- |
|  | 0.0049 µM |  | > 3 h | 441 | 54 nm/s | 0.14 | 0.034 mg/mL (≈ 93 µM) | 0.029 µM | CC(C)(O)C1CC2(CC(NC(=O)c3cnc4nc(C5CC5)ccc4c3)C2)C1 (configuration not stated) |
|  | 0.11 µM | 0.26 µM | 2.45 h | 262 | 30 nm/s | 0.57 | 0.43 mg/mL (≈ 1450 µM) |  | O=C(N[C@H]1CCNC1=O)c1cnc2cc(C3CC3)ncc2c1 |
|  | 0.005 µM | 0.0047 µM |  |  |  |  |  |  | C[C@H]1CCN1c1nc2ncc(C(=O)N[C@H]3C[C@](C)(O)C3)cc2cc1Cl |
|  | 0.0064 µM | 0.19 µM | > 3 h | 362 | 150 nm/s | 0.14 | 0.7 mg/mL (≈ 2110 µM) |  | C[C@]1(O)C[C@H](NC(=O)c2cnc3nc(C4CC4)c(Cl)cc3c2)C1 |
|  | 0.29 µM | 0.91 µM |  |  |  |  |  |  | C[C@]1(O)C[C@@H](NC(=O)c2cnc3cc(C4CC4)ncc3c2)C1 |
|  | 0.014 µM | 0.05 µM |  |  |  |  |  |  | O=C(N[C@H]1CC[C@H](N2CC(F)(F)C2)CC1)c1cnc2nc(C3CC3)ccc2c1 |
|  | 0.0046 µM | 0.014 µM | > 3 h | 252 | 30 nm/s | 0.19 | 0.12 mg/mL (≈ 363 µM) |  | O=C(N[C@H]1CCNC1=O)c1cnc2nc(C3CC3)c(Cl)cc2c1 |
|  | 0.005 µM | < 0.0025 µM |  |  |  |  |  |  | C[C@H]1CCN1c1nc2ncc(C(=O)N[C@H]3C[C@@](C)(O)C3)cc2cc1Cl |
|  | 0.037 µM | 0.26 µM | > 3 h | 715 | 14 nm/s | 0.44 | 0.63 mg/mL (≈ 1940 µM) |  | C[C@H]1CCN1c1cc2ncc(C(=O)N[C@H]3CCNC3=O)cc2cn1 |
|  | 0.0031 µM | < 0.0025 µM |  |  |  |  |  |  | C[C@H]1CCN1c1nc2ncc(C(=O)N[C@H]3C[C@H](C(C)(C)O)C3)cc2cc1Cl |
|  | 0.065 µM | 0.28 µM | > 3 h | 45.3 | 130 nm/s | 0.24 | 0.28 mg/mL (≈ 860 µM) |  | CC(C)(O)[C@H]1C[C@H](NC(=O)c2cnc3cc(C4CC4)ncc3c2)C1 |
|  | 0.035 µM | 0.28 µM | > 3 h | 358 | 270 nm/s |  | > 1 mg/mL |  | O=C(N[C@H]1CC[C@H](N2CC(F)C2)CC1)c1cnc2cc(C3CC3)ncc2c1 |
|  | 0.0066 µM | 0.022 µM |  |  |  |  |  |  | COc1nc2ncc(C(=O)N[C@H]3CC[C@H](C(C)(C)O)CC3)cc2cc1Cl |
|  | 0.0046 µM | 0.0037 µM | > 3 h | 132 | 110 nm/s | 0.13 | 0.74 mg/mL (≈ 1900 µM) |  | C[C@H]1CCN1c1nc2ncc(C(=O)N[C@H]3CC[C@](C)(O)CC3)cc2cc1Cl |
|  | 0.0038 µM | 0.0039 µM |  |  |  |  |  |  | C[C@H]1CCN1c1nc2ncc(C(=O)N[C@H]3CC[C@H](C(C)(C)O)CC3)cc2cc1Cl |
|  | 0.16 µM | 0.45 µM |  |  |  |  |  |  | C[C@@H]1CCN1c1cc2ncc(C(=O)N[C@H]3CC[C@H](C(C)(C)O)CC3)cc2cn1 |
|  | 0.69 µM | 9.6 µM |  |  |  |  |  |  | CC(C)(O)[C@H]1CC[C@H](NC(=O)c2cnc3nc(NCC(F)(F)F)ccc3c2)CC1 |
| < 2 | 0.14 µM | 2 µM |  |  |  |  |  |  | COc1ncc2cc(C(=O)N[C@H]3CC[C@H](C(C)(C)O)CC3)cnc2n1 |
| 4.31 | 0.89 µM | 4.3 µM |  |  |  |  |  |  | COc1ccc2c(c1)N=CN(C(=O)N[C@H]1CC[C@H](C(C)(C)O)CC1)C2 |
|  | 0.036 µM | 0.28 µM | > 3 h | 77.5 |  | 0.26 | 0.1 mg/mL (≈ 307 µM) |  | CC(C)(O)[C@H]1C[C@H](NC(=O)c2cnc3nc(C4CC4)ccc3c2)C1 |
|  | 0.044 µM | 0.64 µM |  |  |  |  |  |  | O=C(N[C@H]1CCNC1=O)c1cnc2nc(C3CC3)ccc2c1 |
|  | 0.3 µM | 7.4 µM |  |  |  |  |  |  | C[C@]1(O)C[C@H](NC(=O)c2cnc3nc(C4CC4)ccc3c2)C1 |
|  | 0.0071 µM | 0.054 µM | > 3 h | 152 | 220 nm/s | 0.13 | 0.031 mg/mL (≈ 93.4 µM) |  | C[C@]1(O)C[C@@H](NC(=O)c2cnc3nc(C4CC4)c(Cl)cc3c2)C1 |
|  | 0.31 µM | 3 µM |  |  |  |  |  |  | C[C@@H]1CCN1c1ccc2cc(C(=O)N[C@H]3CC[C@H](C(C)(C)O)CC3)cnc2n1 |
|  | 0.071 µM | 6 µM |  |  |  |  |  |  | O=C(N[C@H]1CCNC1=O)c1cnc2nc(N3CCC3)ccc2c1 |
|  | 0.0051 µM | 0.0038 µM | > 3 h | 86.2 | < 3 nm/s | 0.19 | > 1 mg/mL |  | C[C@H]1CCN1c1nc2ncc(C(=O)N[C@H]3CCNC3=O)cc2cc1Cl |

Reference: ChEMBL document CHEMBL5260850, “The exploration of aza-quinolines as hematopoietic prostaglandin D synthase (H-PGDS) inhibitors with low brain exposure” (Bioorg Med Chem, 2020)
